Source: patent US20240116875A1, “RATIONAL DESIGN, OPTIMIZATION, AND BIOLOGICAL EVALUATION OF NOVEL MEK4 INHIBITORS AGAINST PANCREATIC ADENOCARCINOMA” (NORTHWESTERN UNIVERSITY, priority 2022, published 2024)
Entries after “also recorded” stand apart in the source; their conditions may differ. Where two headings read alike, the source gives them in different places.

How the values were obtained:
Cot = Cot (Homo sapiens, UniProt P41279); conditions: cited from earlier work
MEK7 = target: T1, MEK7 (Homo sapiens, UniProt O14733); assay: ADP-Glo kinase activity assay, MEK7; assay type: biochemical
T1 construct: purchased Carna Biosciences
T1 sequence (O14733 1-419): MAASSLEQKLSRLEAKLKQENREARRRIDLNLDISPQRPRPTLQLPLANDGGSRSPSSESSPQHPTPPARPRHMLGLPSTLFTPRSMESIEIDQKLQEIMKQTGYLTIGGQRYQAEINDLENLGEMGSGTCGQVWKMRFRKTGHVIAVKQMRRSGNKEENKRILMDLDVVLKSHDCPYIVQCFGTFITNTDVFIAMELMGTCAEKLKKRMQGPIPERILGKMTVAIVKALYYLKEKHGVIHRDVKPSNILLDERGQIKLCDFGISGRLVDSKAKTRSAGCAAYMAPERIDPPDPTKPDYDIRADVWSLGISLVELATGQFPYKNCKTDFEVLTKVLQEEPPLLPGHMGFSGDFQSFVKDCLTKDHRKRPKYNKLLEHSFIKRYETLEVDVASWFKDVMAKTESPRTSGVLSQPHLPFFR
Experimental: The compounds were then evaluated both in vitro and in a cellular system. When studying kinase inhibitors, there are a multitude of ways to evaluate selectivity across kinases.
Procedure for a 5 μL Kinase reaction using the ADP-Glo Kinase Assay Kit from Promega. Staurosporine was used as the positive control, and DMSO as the negative control. Activity of recombinant active full-length human MEK4 (Carna Biosciences) was measured using the ADP-Glo assay with recombinant full-length human p38α (MAPK14). Kinase reactions with MEK7 (Carna Biosciences) were done at the same concentration and amounts with recombinant full-length human p38α (MAPK14).
For each well, 4 ng of MEK4 and 600 ng of p38α in Kinase buffer (CST) were used, and 1 μL of this mixture was dispensed per well.
Inhibitor was prepared in a DMSO solution. A dose response dilution was done in a 384-well Echo transfer plate. […] This mixture was allowed to incubate for 30 minutes at room temperature.
Using a Mantis, 1 μL, of an 8 μM ATP solution was added to each well, and the plate was allowed to incubate for another 1 hour at room temperature. […] All experiments were done in triplicate on the plate, and at least in one separate technical duplicate.

[1] = Log D study (BioDuro-Sundia); conditions: pH of 7.4
[2] = liver microsome stability study (BioDuro-Sundia)
[3] = PAMPA assay (BioDuro-Sundia); assay type: in vitro ADME
Caco-2 = Caco-2 permeability assay; assay type: in vitro ADME
[4] = system: JNK phosphorylation in HEK293T cells; assay: anisomycin-induced JNK phosphorylation, western blotting, HEK293T; assay type: cell-based, human; conditions: anisomycin 45 minutes then compound 5 hours, increasing doses
Experimental: The blots are representative of at least three biological replicates.
(§1) We also examined the effects of these inhibitors on JNK phosphorylation and proliferation of two pancreatic cancer cell lines (CD18 and MiaPaCa2).
(§2) Human pancreatic cancer cell lines (CD18/HPAF-II and MiaPaCa2) and HEK293T cells were obtained from American Type Culture Collection. All cell lines were cultured according to the manufacturer's protocol. All media contained 10% Fetal Bovine Serum (FBS) and antibiotics (100 U/mL Penicillin and 100 μg/mL Streptomycin).
(§3) Whole cell extracts of cultured cells were prepared in radioimmunoprecipitation (RIPA) lysis buffer supplemented with phosphatase and protease inhibitors (Calbiochem). Protein concentration was determined by the bicinchoninic acid assay (BCA) (ThermoFisher) and separated by the SDS-PAGE technique. […] Secondary anti-mouse IgG (A4416) and anti-rabbit IgG (A6667) antibodies were purchased from Sigma-Aldrich and used a 1:4000 dilution. Images of blots were acquired on HyBlot ES Autoradiography Film (Thomas Scientific, Swedesboro, NJ, USA) following incubation with SuperSignal West Pico PLUS (ThermoFisher).

[5] = system: JNK phosphorylation in CD18 cells; assay: anisomycin-induced JNK phosphorylation, western blotting, CD18; assay type: cell-based, human; conditions: CD18, anisomycin 45 minutes then compound 5 hours
Experimental: (§4) HSP90 was used as loading control. The blots are representative of at least three biological replicates.
as §1, §2, §3

[6] = system: JNK phosphorylation in MiaPaCa2 cells; assay: anisomycin-induced JNK phosphorylation, western blotting, MiaPaCa2; assay type: cell-based, human; conditions: MiaPaCa2, anisomycin 45 minutes then compound 5 hours
Experimental: as §4, §1, §2, §3

HEK293T cells = assay: cell proliferation (cell count after 72 hours), HEK293T; assay type: cell-based, human; conditions: varying doses
Experimental: After 72 hours, cells were trypsinized, counted, and the cell numbers were normalized against the DMSO treatment. Mean±SD. Graphs are representative of 3 biological replicates. One-way ANOVA; ns, non-significant **, p<0.01 ***, p<0.001.
as §1, §2

CD18 cells = assay: cell proliferation (cell count after 72 hours), CD18; assay type: cell-based, human; conditions: CD18, 72 hours, varying doses, single agent
Experimental: (§5) After 72 hours, cells were trypsinized, counted, and the cell numbers were normalized against the DMSO treatment. Mean±SD. Graphs are representative of 3 biological replicates.
as §5
(§6) Cell numbers from different treatments were normalized against the DMSO treatment, and CDI is calculated as follows: CDI=AB/(A×B), with AB being the ratio of the combination groups to control group and A or B being the ratio of the single agent group to the DMSO group. Mean±SEM from 3 biological replicates.
as §1, §2

MiaPaCa2 cells = assay: cell proliferation (cell count after 72 hours), MiaPaCa2; assay type: cell-based, human; conditions: MiaPaCa2, 72 hours, varying doses, single agent
Experimental: as §5, §5, §6, §1, §2

[7] = system: MEK7 expression in HEK293T cells; assay: MEK7 expression, western blotting, HEK293T; assay type: cell-based, human; conditions: anisomycin pretreatment, compound 100 μM, 5 hours
Experimental: as §4
(§7) We next evaluated the effects of our inhibitors on the phosphorylation activity and expression of MEK1/2, MEK3/6, and MEK7. […] We also evaluated the effects on p42/44 MAPK (ERK1/2), which functions downstream of MEK1/2.
as §3

[8] = system: phospho-p38 MAPK in HEK293T cells; assay: p38 MAPK phosphorylation, western blotting, HEK293T; assay type: cell-based, human; conditions: anisomycin pretreatment, compound 100 μM, 5 hours
Experimental: as §4, §7, §3

[9] = system: phospho-p42/44 MAPK in HEK293T cells; assay: p42/44 MAPK (ERK1/2) phosphorylation, western blotting, HEK293T; assay type: cell-based, human; conditions: anisomycin pretreatment, compound 100 μM, 5 hours
Experimental: as §4, §7, §3

[10] = system: phospho-p42/44 MAPK in CD18 cells; assay: p42/44 MAPK phosphorylation, western blotting, CD18; assay type: cell-based, human; conditions: CD18, MEK4 inhibitor 10 μM, 5 hours
Experimental: (§8) The effects of different treatments on phospho-p42/44 MAPK and total p42/44 MAPK expression levels were determined by western blotting. HSP90 was used as loading control. The blots are representative of at least three biological replicates.
as §3

[11] = system: phospho-p42/44 MAPK in MiaPaCa2 cells; assay: p42/44 MAPK phosphorylation, western blotting, MiaPaCa2; assay type: cell-based, human; conditions: MiaPaCa2, MEK4 inhibitor 10 μM, 5 hours
Experimental: as §8, §3

CYP 1A2 = CYP 1A2 (Homo sapiens, UniProt P05177)
CYP 2D6 = CYP 2D6 (Homo sapiens, UniProt P10635); assay: CYP inhibition, 2D6
CYP 2C9 = CYP 2C9 (Homo sapiens, UniProt P11712); assay: CYP inhibition, 2C9
CYP 2C19 = CYP 2C19 (Homo sapiens, UniProt P33261); assay: CYP inhibition, 2C19
CYP isoforms 3A4/5 = assay: CYP inhibition, 3A4/5

Chain of CYP 2C9 (P11712 whole entry): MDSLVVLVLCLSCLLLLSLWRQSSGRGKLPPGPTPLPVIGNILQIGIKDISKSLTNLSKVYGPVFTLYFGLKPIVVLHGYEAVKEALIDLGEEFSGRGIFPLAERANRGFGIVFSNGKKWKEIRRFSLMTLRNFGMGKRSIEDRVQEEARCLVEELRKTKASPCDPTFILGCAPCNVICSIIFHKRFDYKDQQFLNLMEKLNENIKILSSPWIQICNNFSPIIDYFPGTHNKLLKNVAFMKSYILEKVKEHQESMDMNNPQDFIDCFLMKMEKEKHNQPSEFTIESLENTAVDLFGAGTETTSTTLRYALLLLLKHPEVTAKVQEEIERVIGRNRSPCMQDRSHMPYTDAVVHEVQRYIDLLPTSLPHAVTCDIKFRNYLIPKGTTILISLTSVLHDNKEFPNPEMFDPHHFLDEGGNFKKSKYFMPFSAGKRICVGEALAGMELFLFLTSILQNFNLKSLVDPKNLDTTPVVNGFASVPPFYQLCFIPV
Chain of CYP 2C19 (P33261 whole entry, canonical isoform): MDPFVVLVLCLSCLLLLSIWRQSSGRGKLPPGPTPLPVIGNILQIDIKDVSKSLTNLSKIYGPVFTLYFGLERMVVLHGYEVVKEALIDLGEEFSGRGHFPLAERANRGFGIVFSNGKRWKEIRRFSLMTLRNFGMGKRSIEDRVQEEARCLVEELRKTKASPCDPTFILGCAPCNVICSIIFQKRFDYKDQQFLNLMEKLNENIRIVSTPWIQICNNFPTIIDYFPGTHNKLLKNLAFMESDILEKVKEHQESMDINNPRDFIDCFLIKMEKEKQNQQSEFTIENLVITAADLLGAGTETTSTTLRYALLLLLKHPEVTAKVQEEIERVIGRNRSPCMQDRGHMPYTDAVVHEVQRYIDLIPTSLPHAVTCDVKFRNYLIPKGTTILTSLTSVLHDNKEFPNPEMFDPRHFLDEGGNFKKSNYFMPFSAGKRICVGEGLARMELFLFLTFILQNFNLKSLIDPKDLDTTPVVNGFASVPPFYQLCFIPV
Chain of Cot (P41279 whole entry): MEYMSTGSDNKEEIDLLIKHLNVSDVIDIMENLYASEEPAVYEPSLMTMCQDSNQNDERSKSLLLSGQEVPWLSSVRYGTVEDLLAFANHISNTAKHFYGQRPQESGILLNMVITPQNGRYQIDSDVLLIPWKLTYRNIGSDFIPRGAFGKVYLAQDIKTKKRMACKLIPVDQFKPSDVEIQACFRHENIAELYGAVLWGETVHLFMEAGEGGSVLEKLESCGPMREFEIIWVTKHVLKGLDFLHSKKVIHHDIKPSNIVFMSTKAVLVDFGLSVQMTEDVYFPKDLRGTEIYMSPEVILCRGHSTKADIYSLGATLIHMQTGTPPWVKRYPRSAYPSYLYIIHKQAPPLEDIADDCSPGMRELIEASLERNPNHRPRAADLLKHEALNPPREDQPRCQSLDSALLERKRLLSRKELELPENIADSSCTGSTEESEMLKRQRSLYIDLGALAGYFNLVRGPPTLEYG
Chain of CYP 2D6 (P10635 whole entry): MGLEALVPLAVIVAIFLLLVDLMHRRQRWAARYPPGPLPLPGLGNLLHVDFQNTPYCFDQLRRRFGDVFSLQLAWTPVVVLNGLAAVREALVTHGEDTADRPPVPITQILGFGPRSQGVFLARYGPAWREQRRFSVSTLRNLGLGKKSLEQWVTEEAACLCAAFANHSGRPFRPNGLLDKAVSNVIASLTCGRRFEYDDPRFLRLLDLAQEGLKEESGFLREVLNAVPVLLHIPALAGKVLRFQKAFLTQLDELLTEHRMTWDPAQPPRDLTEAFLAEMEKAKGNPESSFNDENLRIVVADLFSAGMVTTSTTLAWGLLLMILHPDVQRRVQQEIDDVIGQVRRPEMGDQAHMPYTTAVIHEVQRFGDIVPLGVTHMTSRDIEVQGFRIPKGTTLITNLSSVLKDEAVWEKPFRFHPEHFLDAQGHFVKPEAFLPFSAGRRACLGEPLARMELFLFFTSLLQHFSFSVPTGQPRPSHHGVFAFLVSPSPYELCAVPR
Chain of CYP 1A2 (P05177 whole entry): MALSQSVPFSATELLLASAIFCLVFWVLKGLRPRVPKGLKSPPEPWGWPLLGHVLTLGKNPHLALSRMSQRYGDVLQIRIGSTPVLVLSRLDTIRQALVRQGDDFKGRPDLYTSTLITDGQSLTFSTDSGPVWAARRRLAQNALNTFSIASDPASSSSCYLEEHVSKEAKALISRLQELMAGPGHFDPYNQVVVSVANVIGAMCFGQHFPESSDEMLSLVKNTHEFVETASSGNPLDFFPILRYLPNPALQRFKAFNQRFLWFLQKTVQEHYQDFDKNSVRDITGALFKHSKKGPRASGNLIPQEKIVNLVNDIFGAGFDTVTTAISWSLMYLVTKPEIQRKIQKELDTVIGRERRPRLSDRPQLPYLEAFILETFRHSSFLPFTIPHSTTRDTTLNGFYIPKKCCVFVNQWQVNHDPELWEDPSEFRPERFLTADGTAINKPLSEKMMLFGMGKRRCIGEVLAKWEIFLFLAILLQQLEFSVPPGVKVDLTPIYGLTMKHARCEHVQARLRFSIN

For `O=c1c(-c2ccc(O)c(O)c2)coc2cc(O)ccc12` [THIF, 7,3′,4′-trihydroxyisoflavone], the “Cot activity (literature)” value (Cot) is given as “inhibits”.
Work on `NS(=O)(=O)c1ccc(-c2n[nH]c3cc(F)ccc23)cc1` [Compound 10e, 4-(6-fluoro-1H-indazol-3-yl)benzenesulfonamide] yielded an IC50 (MEK7) of 520 ± 670 nM, an IC50 (MEK7; headline value per compound, read-out: MEK7 IC50) of 540 nM and an IC50 (MEK7; individual experiment, values in brackets, n=3, read-out: MEK7 IC50 of each experiment (IC50±SEM)) of 560 ± 220 nM. For the same compound, the “log D” value [1] was 2.80, the “half-life in the microsome assay” value ([2]; liver microsome) was 1.9 h and the “stability in the microsome assay” value ([2]; microsomes) was “good stability”. The “permeability in the PAMPA assay” value [3] was “performed slightly better”, the Caco-2 permeability (Caco-2) was “medium to high permeability” and the “effect on anisomycin-induced JNK phosphorylation” value [4] was “attenuated anisomycin-induced INK phosphorylation in a dose-dependent manner”. For the same compound, the “effect on anisomycin-induced JNK phosphorylation” value [5] was “attenuated anisomycin-induced JNK phosphorylation”, the “effect on anisomycin-induced JNK phosphorylation” value [6] was “attenuated anisomycin-induced JNK phosphorylation” and the cell proliferation (HEK293T cells) was “decreased. HEK293T cell proliferation in a dose-dependent manner”. The cell proliferation (CD18 cells) was “decreased proliferation; also recorded: antiproliferative properties”, the cell proliferation (MiaPaCa2 cells) was “decreased proliferation; also recorded: antiproliferative properties” and the “effect on the expression of MEK7” value [7] was “no effect”. For the same compound, the “effect on anisomycin-induced p38 MAPK phosphorylation” value [8] was “not affected”, the “effect on p42/44 MAPK phosphorylation after anisomycin” value [9] was “reversed the effects of anisomycin” and the “effect on p42/44 MAPK phosphorylation” value [10] was “increased p42/44 MAPK phosphorylation”. The “effect on p42/44 MAPK phosphorylation” value [11] was “did not induce p42/44 MAPK phosphorylation”, the “inhibition of CYP 1A2” value (CYP 1A2) was “inhibited” and the “inhibition of CYP 2D6” value (CYP 2D6) was “avoided inhibiting”. The “inhibition of CYP 2C9” value (CYP 2C9) was “avoided inhibiting”, the “inhibition of CYP 2C19” value (CYP 2C19) was “inhibited” and the “inhibition of CYP isoforms 3A4/5” value (CYP isoforms 3A4/5) was “did not inhibit”.
